Common to all, as to type: biochemical
For assay [1], the system named is serotonine (5-HT) reuptake in synaptosomes. Description: Inhibition of 5-HT reuptake in synaptosomes. The conditions noted are these: 3H-5-HT, read-out: 5-HT-uptake IC50. As for the experimental part:
(§1) Compounds were tested for their ability to inhibit the reuptake of the monoamine neurotransmitters dopamine (DA) noradrenaline (NA) and serotonine (5-HT) in synaptosomes as described in WO 97/16451 (NeuroSearch NS).
(§2) The test values are given as IC50 (the concentration (μM) of the test substance which inhibits the specific binding of ^3H-DA, ^3H-NA, or ^3H-5-HT by 50%).

Assay [2] relates to dopamine (DA) reuptake in synaptosomes. Briefly: Inhibition of DA reuptake in synaptosomes. The conditions noted are these: 3H-DA, read-out: DA-uptake IC50. As for the experimental part: as §1, §2
For assay [3], the system named is noradrenaline (NA) reuptake in synaptosomes. Description: Inhibition of NA reuptake in synaptosomes. Particulars: 3H-NA, read-out: NA-uptake IC50. As for the experimental part: as §1, §2

For 2 molecules, IC50 results are on record in patent US20110263651A1, “NOVEL PIPERIDINE-BUTYRAMIDE DERIVATIVES AND THEIR USE AS MONOAMINE NEUROT[…]-UPTAKE INHIBITORS” (N[…]/S, priority 2008, published 2011).

Counter-ions that a name gives are not always drawn.

Regarding `CCN(C(=O)CCCC1CCN(C)CC1)c1ccc(Cl)c(Cl)c1` [Compound 4.1, N-(3,4-Dichloro-phenyl)-N-ethyl-4-(1-methyl-piperidin-4-yl)-butyramide fumaric acid salt], the IC50 in assay [1] was 800 nM; in assay [2], 6.9 nM; in assay [3], 12 nM.
The corresponding values for `CCN(C(=O)CCCC1CCNCC1)c1ccc(Cl)c(Cl)c1` [Compound 3.1, N-(3,4-Dichloro-phenyl)-N-ethyl-4-piperidin-4-yl-butyramide fumaric acid salt] are 570 nM, 12 nM and 30 nM.

The term IC50 denotes the point on the concentration scale where inhibition reaches its midpoint.
